Laboratory results reported in patent US20240101535A1, “DIHYDROISOQUINOLINONE DERIVATIVE AND APPLICATION THEREOF” (ETERN BIOPHARMA (SHANGHAI) CO., LTD., priority 2020, published 2024).
Where a name gives a salt, the structure may show the parent alone. Read-outs that look alike come from different tables or passages of the source.

Assays:
MV4-11 cells = experiment: MV4-11 cell proliferation inhibition experiment (CellTiter-Glo); assay type: cell-based; conditions: Homo sapiens, 144 h, 6 days
Procedure: Test Example 2: MV4-11 Cell (ATCC: CRL-9591) Proliferation Inhibition Experiment
(§1) ATP in living cells was quantitatively detected by CellTiter-Glo (Promega-G7573) Luminescence Cell Viability Assay Kit to determine the effect of the compounds to be tested on cell proliferation. • Step 1: MV4-11 cells were seeded in 96-well plates (Greiner-655098) at a density of 1,500 cells per well with a volume of 140 μL per well; Cell culture medium components included RPM11640 (Gibco-A10491-01)+10% FBS (Gibco-10099-141C)+1% Penicillin-Streptomycin (5,000 U/mL, Gibco-15070-063). • Step 2: On the day of cell seeding, the cells were treated with the compound to be tested. The compound to be tested was diluted with a 3-fold gradient, and a total of 9 concentration gradients were set. DMSO (Sigma, D2650) with 0.5% final concentration or a DMSO solution containing the compound to be tested was added per well with 2 or 3 replicate wells at each concentration point. The plates were incubated at 37° C. in a 5% CO2 incubator (Thermo Scientific Steri-Cycle 371) for 6 days. • Step 3: The cell viability in the control and treatment groups was detected with CellTiter-Glo Luminescent Cell Viability Assay Kit. 50 μL of CellTiter-Glo was added per well, mixed well, and incubated for 15 min at room temperature protected from light. According to the kit instructions, the chemiluminescence signal was read using a multifunctional microplate reader (EnVision, PerkinElmer).
(§2) The inhibition percentage (%) of the compound at each concentration point was calculated by the following formula:
(§3) Inhibition Percentage (%)=(1−signal value of the group treated with the compound/signal value of the group treated with DMSO)*100.
The value of cell proliferation semi-inhibitory concentration IC50 was calculated using GraphPad Prism software, and the results are shown in Table 2.

Jurkat cells = experiment: Jurkat cell proliferation inhibition experiment (CellTiter-Glo); assay type: cell-based; conditions: for IC50: Homo sapiens, 144 h, Jurkat cells, 6 days, CellTiter-Glo, read-out: Jurkat cell proliferation inhibitory activity IC50; for selectivity: ratio of Jurkat cell IC50 to MV4-11 cell IC50
Procedure: Test Example 3: Jurkat (ATCC: TIB-152) Cell Proliferation Inhibition Experiment
as §1, with “Jurkat” for “MV4-11”
as §2, §3
The value of cell proliferation semi-inhibitory concentration IC50 was calculated using GraphPad Prism software, and the results are shown in Table 3. The ratio of Jurkat cell proliferation inhibitory activity IC50 to MV4-11 cell proliferation inhibitory activity IC50 may be further calculated to obtain selectivity.

[1] = target: WDR5 protein (22-334aa) with MLL1 polypeptide (3672-3773aa) (Homo sapiens, UniProt P61964); experiment: WDR5-MLL PPI inhibitory activity test (HTRF); assay type: binding; conditions: His-tagged WDR5 and biotin-tagged MLL1 polypeptide
In short: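 His-tagged WDR5 (42 nM working solution) was preincubated with compound for 60 min at room temperature in 25 mM HEPES pH 7.5, 100 mM NaCl, 0.05% Tween 20 (final DMSO 0.5%). Biotin-MLL1 peptide (333 nM working solution) was then added for 10 min, followed by Eu-cryptate/streptavidin-APC detection for 60 min. The 665/620 nm ratio gave IC50.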

[2] = read-out: MV4-11 cell proliferation inhibitory activity IC50
[3] = read-out: cell proliferation inhibitory activity

Compound | IC50 (MV4-11 cells; [2]) [nM] | IC50 (MV4-11 cells; [3]) [nM] | IC50 (Jurkat cells) [nM] | IC50 [1] [nM] | selectivity (Jurkat cells) [time]
CCOc1cc([C@H](C)N2CC3(CCC3)c3c(CN(C)C)cc(Cn4ccnc4NC)cc3C2=O)ncc1C#N [Compound 23, (S)-6-(1-(5′-((dimethylamino)methyl)-7′-((2-(methylamino)-1H-imidazol-1-yl)methyl)-1′-one-1′H-spiro[cyclobutan-1,4′-isoquinoline]-2′(3′H)-yl)ethyl)-4-ethoxynicotinonitrile] | 4 | < 50 | 1400 | < 20 | 350
CCOc1cc([C@H](C)N2CC3(CC3)c3c(CN(C)C)cc(Cn4ccnc4NC)cc3C2=O)ncc1F [Compound 1, (S)-5′-((dimethylamino)methyl)-2′-(1-(4-ethoxy-5-fluoropyridine-2-yl)ethyl)-7′-((2-(methylamino)-1H-imidazol-1-yl)methyl)-2′,3′-dihydro-1′H-spiro[cyclopropan-1,4′-isoquinoline]-1′-one] | 19 | 50 to 200 | 6800 | < 20 | 357
CCOc1cc(CN2CC3(CCC3)c3c(CN(C)C)cc(Cn4ccnc4NC)cc3C2=O)ncc1C#N [Compound 77, 6-((5′-((dimethylamino)methyl)-7′-((2-(methylamino)-1H-imidazol-1-yl)methyl)-1′-one-1′H-spiro[cyclobutan-1,4′-isoquinoline]-2′(3′H)-yl)methyl)-4-ethoxynicotinonitrile] | – | < 50 | – | < 20 | –
CCOc1cc([C@H](C)N2CC3(CC3)c3c(CN4CCOCC4)cc(Cn4ccnc4NC)cc3C2=O)ncc1C#N [Compound 59] | – | < 50 | – | < 20 | –
CCOc1cc([C@H](C)N2CC3(CCC3)c3c(CN4CCN(C)CC4)cc(Cn4ccnc4NC)cc3C2=O)ncc1C#N [Compound 73, (S)-4-ethoxy-6-(1-(7′-((2-(methylamino)-1H-imidazol-1-yl)methyl)-5′-((4-methylpiperazin-1-yl)methyl)-1′-one-1′H-spiro[cyclobutan-1,4′-isoquinoline]-2′(3′H)-yl)ethyl)nicotinonitrile] | – | < 50 | – | < 20 | –
CCOc1cc(CN2CC3(CC3)c3c(CN(C)C)cc(Cn4ccnc4NC)cc3C2=O)ncc1C#N [Compound 71, 6-((5′-((dimethylamino)methyl)-7′-((2-(methylamino)-1H-imidazol-1-yl)methyl)-1′-one-1′H-spiro[cyclopropan-1,4′-isoquinoline]-2′(3′H)-yl)methyl)-4-ethoxynicotinonitrile] | – | < 50 | – | < 20 | –
CCOc1cc(CN2CC3(CC3)c3c(CN4CCN(C)CC4)cc(Cn4ccnc4NC)cc3C2=O)nn1C [Compound 66, 2′-((5-ethoxy-1-methyl-1H-pyrazole-3-yl)methyl)-7′-((2-(methylamino)-1H-imidazol-1-yl)methyl)-5′-((4-methylpiperazin-1-yl)methyl)-2′,3′-dihydro-1′H-spiro[cyclopropan-1,4′-isoquinoline]-1′-one] | – | < 50 | – | < 20 | –
CCOc1cc([C@H](C)N2CC3(CC3)c3c(CN4CCOCC4)cc(Cn4ccnc4NC)cc3C2=O)ncc1F [Compound 8] | – | 50 to 200 | – | < 20 | –

The next lines start with results.

IC50 (MV4-11 cells; [2]) [nM] | IC50 (MV4-11 cells; [3]) [nM] | IC50 (Jurkat cells) [nM] | IC50 [1] [nM] | Compound | selectivity (Jurkat cells) [time]
3 | < 50 | 1400 | < 20 | CCOc1cc([C@H](C)N2C[C@@]3(CC3(F)F)c3c(CN(C)C)cc(Cn4ccnc4NC)cc3C2=O)ncc1C#N (stereo in doubt) [Compound 94, 6-(-1-(5′-((dimethylamino)methyl)-2,2-difluoro-7′-((2-(methylamino)-1H-imidazol-1-yl)methyl)-1′-one-1′H-spiro[cyclopropan-1,4′-isoquinoline]-2′(3′H)-yl)ethyl)-4-ethoxynicotinonitrile formate salt] | 466
4 | < 50 | 1200 | < 20 | CCOc1cc([C@H](C)N2CC3(CC(F)(F)C3)c3c(CN(C)C)cc(Cn4ccnc4NC)cc3C2=O)ncc1C#N [Compound 99] | 300
5 | < 50 | 1600 | < 20 | [2H]C([2H])([2H])N(Cc1cc(Cn2ccnc2NC)cc2c1C1(CCC1)CN(C(C)c1cc(OCC)c(C#N)cn1)C2=O)C([2H])([2H])[2H] (stereo not drawn) [Compound 100, 6-(1-(5′-((bis(methyl-d3)amino)methyl)-7′-((2-(methylamino)-1H-imidazol-1′-yl)methyl)-1′-oxo-1′H-spiro [cyclobutan-1,4′-isoquinoline]-2′(3′H)-yl)ethyl)-4-ethoxynicotinonitrile] | 320
10 | < 50 | 3100 | < 20 | CCOc1cc([C@H](C)N2C[C@]3(CC3(F)F)c3c(CN(C)C)cc(Cn4ccnc4NC)cc3C2=O)ncc1F [Compound 91, (S)-5′-((dimethylamino)methyl)-2′-((S)-1-(4-ethoxy-5-fluoropyridine-2-yl)ethyl)-2,2-difluoro-7′-((2-(methylamino)-1H imidazol-1-yl)methyl)-2′, 3′-dihydro-1′H-spiro[cyclopropan-1,4′-isoquinoline]-1′-one] | 310
